Molecules are shown by their SMILES.

Experimental findings from ChEMBL document CHEMBL3832040, “DailyMed|setid=dbe8d4f6-c338-4076-9ae9-2e86c0767226 | TRIAMTERENE AND HYDROCHLOROTHIAZIDE- triamterene and hydrochlorothiazide tablet|Aidarex Pharmaceuticals LLC” are described below.

A short description of this data set: Evaluation of the Tmax of Hydrochlorothiazide following oral administration of hydrochlorothiazide. Format: ADME, organism-based. Particulars: human, in vivo, dosed compound id 30, dosed compound name HYDROCHLOROTHIAZIDE, tissue Plasma.

Turning to `NS(=O)(=O)c1cc2c(cc1Cl)NCNS2(=O)=O` [HYDROCHLOROTHIAZIDE], the Tmax worked out at 2 h.
